From patent US11560376B2, “Amino acid compounds and methods of use” (Pliant Therapeutics, Inc., priority 2018, dated 2023) come the findings set out here.

A word on the IC50: it is the concentration that inhibits the measured activity by half.

recombinant human integrin αvβ6, sequence (P06756 31-992): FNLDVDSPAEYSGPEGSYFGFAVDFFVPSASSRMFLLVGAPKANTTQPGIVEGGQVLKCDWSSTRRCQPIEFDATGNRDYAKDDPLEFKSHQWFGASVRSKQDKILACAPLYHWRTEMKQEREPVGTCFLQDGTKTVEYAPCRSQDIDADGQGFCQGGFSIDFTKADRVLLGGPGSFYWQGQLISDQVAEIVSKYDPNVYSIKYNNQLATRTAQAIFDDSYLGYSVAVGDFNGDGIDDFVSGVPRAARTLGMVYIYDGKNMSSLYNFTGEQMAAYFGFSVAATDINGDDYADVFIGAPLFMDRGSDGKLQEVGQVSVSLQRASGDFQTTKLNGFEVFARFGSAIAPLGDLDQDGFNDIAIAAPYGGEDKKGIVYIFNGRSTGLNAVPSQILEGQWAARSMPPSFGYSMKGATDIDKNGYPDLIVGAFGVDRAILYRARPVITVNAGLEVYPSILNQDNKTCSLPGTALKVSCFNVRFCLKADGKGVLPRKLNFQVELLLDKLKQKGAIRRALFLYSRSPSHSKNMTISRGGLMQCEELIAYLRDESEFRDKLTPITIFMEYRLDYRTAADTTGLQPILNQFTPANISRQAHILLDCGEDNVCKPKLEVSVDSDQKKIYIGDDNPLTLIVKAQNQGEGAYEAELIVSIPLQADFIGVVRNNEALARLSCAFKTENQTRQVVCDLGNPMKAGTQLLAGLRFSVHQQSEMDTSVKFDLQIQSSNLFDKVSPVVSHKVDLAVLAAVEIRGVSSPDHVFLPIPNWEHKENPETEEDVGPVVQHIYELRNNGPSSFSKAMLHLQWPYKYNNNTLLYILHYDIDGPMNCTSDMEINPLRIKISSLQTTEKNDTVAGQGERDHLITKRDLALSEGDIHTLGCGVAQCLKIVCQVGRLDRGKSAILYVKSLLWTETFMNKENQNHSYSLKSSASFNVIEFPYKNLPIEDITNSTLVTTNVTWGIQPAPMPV
recombinant human integrin αvβ6, sequence (P18564 22-707): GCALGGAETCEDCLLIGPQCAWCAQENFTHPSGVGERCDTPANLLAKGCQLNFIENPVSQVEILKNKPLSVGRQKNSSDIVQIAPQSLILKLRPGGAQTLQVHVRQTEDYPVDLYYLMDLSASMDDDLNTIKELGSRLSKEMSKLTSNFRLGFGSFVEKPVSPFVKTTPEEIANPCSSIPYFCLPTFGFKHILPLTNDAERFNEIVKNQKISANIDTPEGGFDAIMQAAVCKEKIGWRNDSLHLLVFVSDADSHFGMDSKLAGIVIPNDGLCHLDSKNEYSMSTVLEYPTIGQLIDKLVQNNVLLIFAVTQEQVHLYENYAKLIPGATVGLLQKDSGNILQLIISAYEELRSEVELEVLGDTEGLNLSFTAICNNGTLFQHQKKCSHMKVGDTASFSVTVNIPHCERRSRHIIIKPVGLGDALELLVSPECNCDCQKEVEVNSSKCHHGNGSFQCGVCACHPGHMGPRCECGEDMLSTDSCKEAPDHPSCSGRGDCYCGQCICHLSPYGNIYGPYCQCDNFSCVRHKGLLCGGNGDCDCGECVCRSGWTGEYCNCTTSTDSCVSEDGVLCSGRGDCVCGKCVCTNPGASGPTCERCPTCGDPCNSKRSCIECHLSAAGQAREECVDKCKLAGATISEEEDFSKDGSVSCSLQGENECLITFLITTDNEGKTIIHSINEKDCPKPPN

The experiment concerns the target recombinant human integrin αvβ6 (Homo sapiens (Human), UniProt P06756+P18564). Description: Solid phase integrin αvβ6 binding assay. The following applies: TGFβ1 LAP as ligand, IC50 presented in four ranges, read-out: αvβ6 Inhibition IC50 (nM) - range. The procedure:
(§1) Microplates were coated with recombinant human integrin αvβ6 (2 μg/mL) in PBS (100 μL/well 25° C., overnight). The coating solution was removed, washed with wash buffer (0.05% Tween 20; 0.5 mM MnCl2; in 1×TBS). The plate was blocked with 200 μL/well of Block Buffer (1% BSA; 5% sucrose; 0.5 mM MnCl2; in 1×TBS) at 37° C. for 2 h. Dilutions of testing compounds and recombinant TGFβ1 LAP (0.67 μg/mL) in binding buffer (0.05% BSA; 2.5% sucrose; 0.5 mM MnCl2; in 1×TBS) were added. The plate was incubated for 2 hours at 25° C., washed, and incubated for 1 hour with Biotin-Anti-hLAP. Bound antibody was detected by peroxidase-conjugated streptavidin. The IC50 values for testing compounds were calculated by a four-parameter logistic regression.
The compounds tested were compound samples prepared according to procedures described in the Synthetic Examples section, with the stereochemical purity as indicated in the Examples.
as §1, with “A third series of exemplary compounds was selected for testing in the solid phase integrin αvβ6 binding assay. The compounds tested were compound samples prepared according to procedures described in the Synthetic Examples section, with the stereochemical purity as indicated in the Examples. As in Example B1, microplates” for “Microplates”
As for `O=C(O)[C@H](CCN(CCCCc1ccc2c(n1)NCCC2)C1CC1)Nc1ccncn1` [Compound 2, (S)-4-(cyclopropyl(4-(5,6,7,8-tetrahydro-1,8-naphthyridin-2-yl)butyl)amino)-2-(pyrimidin-4-ylamino) butanoic acid], the half-inhibitory concentration (IC50) lay within 250 to 1000 nM.
Consider `CO[C@H](C)CN(CCCCc1ccc2c(n1)NCCC2)CC[C@H](Nc1ncncc1-c1ccccc1)C(=O)O` [Compound 81, (S)-4-(((R)-2-methoxypropyl) (4-(5,6,7,8-tetrahydro-1,8-naphthyridin-2-yl)butyl)amino)-2-((5-phenylpyrimidin-4-yl)amino) butanoic acid], for which the half-inhibitory concentration (IC50) was under 50 nM.
Under `COC[C@@H](F)CN(CCCCc1ccc2c(n1)NCCC2)CC[C@H](Nc1ncc(C#N)cn1)C(=O)O` [Compound 84, (S)-2-((5-cyanopyrimidin-2-yl)amino)-4-(((S)-2-fluoro-3-methoxypropyl) (4-(5,6,7,8-tetrahydro-1,8-naphthyridin-2-yl)butyl)amino) butanoic acid] stands 250 to 1000 nM.
In the case of `Cn1ncc2c(N[C@@H](CCN(CCCCc3ccc4c(n3)NCCC4)CCS(C)(=O)=O)C(=O)O)ncnc21` [Compound 101, (S)-2-((1-methyl-1H-pyrazolo[3,4-d]pyrimidin-4-yl)amino)-4-((2-(methylsulfonyl)ethyl) (4-(5,6,7,8-tetrahydro-1,8-naphthyridin-2-yl)butyl)amino) butanoic acid], the IC50 was 50 to 250 nM.
Turning to `COC[C@@H](F)CN(CCCCc1ccc2c(n1)NCCC2)CC[C@H](Nc1ccncn1)C(=O)O` [Compound 127, (S)-4-(((S)-2-fluoro-3-methoxypropyl) (4-(5,6,7,8-tetrahydro-1,8-naphthyridin-2-yl)butyl)amino)-2-(pyrimidin-4-ylamino) butanoic acid], the IC50 lay within 250 to 1000 nM.
As for `O=C(O)[C@H](CCN(CCCCc1ccc2c(n1)NCCC2)CCC(F)F)Nc1ncc(Br)cn1` [Compound 131, (S)-2-((5-bromopyrimidin-2-yl)amino)-4-((3,3-difluoropropyl) (4-(5,6,7,8-tetrahydro-1,8-naphthyridin-2-yl)butyl)amino) butanoic acid], the IC50 is 50 to 250 nM.
As to `O=C(O)[C@H](CCN(CCCCc1ccc2c(n1)NCCC2)CCC(F)F)Nc1ncc(C2CC2)cn1` [Compound 135, (S)-2-((5-cyclopropylpyrimidin-2-yl)amino)-4-((3,3-difluoropropyl) (4-(5,6,7,8-tetrahydro-1,8-naphthyridin-2-yl)butyl)amino) butanoic acid], the IC50 fell in the range of 50 to 250 nM.
